Test results taken from patent publication US20230381176A1, “A PHARMACEUTICAL COMPOSITION AND USE THEREOF FOR TREATMENT OF CANCER” (Ascentage Pharma (Suzhou) Co., Ltd., priority 2020, published 2023).

Columns and labels:
A549 NSCLC xenograft = experiment: s.c. A549 NSCLC xenograft tumor model, Compound 5 and trametinib/selumetinib; format: in vivo, mouse
Experimental: (§1) A subcutaneous xenograft tumor model of human tumor immunodeficient mice was established by cell inoculation: tumor cells in logarithmic growth phase were collected, counted, resuspended in 1×PBS, and the cell suspension concentration was adjusted to 2.5-5 ×10^7/mL. The tumor cells were inoculated subcutaneously in the right side of immunodeficient mice with a 1 mL syringe ([…]), 5-10×10^6/0.2 mL/mouse. All animal experiments were strictly in accordance with the specifications for the use and management of experimental animals in GenePharma Co., Ltd. and Suzhou Ascentage Pharma Co., Ltd. The calculation of relevant parameters refers to the Chinese NMPA “Guidelines for Non-Clinical Research Techniques of Cytotoxic Anti-tumor Drugs”.
(§2) Animal body weight and tumor size were measured twice weekly during the experiment. The state of the animal and the presence or absence of death were observed every day. The growth of tumor and the effects of treatment on normal behavior of animals were monitored routinely, specifically involving experimental animal activity, feeding and drinking, weight gain or loss, eyes, clothing hair and other abnormalities. The deaths and clinical symptoms observed during the experiment were recorded in the raw data. All operations for administration and measurement of mouse body weight and tumor volume were performed in a clean bench. According to the requirements of the experimental protocol, after the end of the last administration, plasma and tumor tissues were collected, weighed and photographed. The plasma and tumor samples were frozen at −80° C. for ready-to-use.
(§3) Tumor volume (TV) is calculated as: TV=a×b^2/2, wherein a and b represent the length and width of the tumor to be measured, respectively.
(§4) The relative tumor volume (RTV) is calculated as: RTV=Vt/V1, wherein V1 is the tumor volume at the start of grouping and administration, and Vt is the tumor volume measured on the t day after administration.
(§5) The evaluation index of anti-tumor activity is the relative tumor proliferation rate T/C (%), and the calculation formula thereof is: relative tumor proliferation rate T/C (%)=(TRTV/CRTV)×100%, TRTV is the RTV of treatment group, CRTV is the RTV of solvent control group.
(§6) Change of body weight (%)=(measured body weight−body weight at the start of grouping)/body weight at the start of grouping×100%.
(§7) A dose of drug is considered to be severely toxic if the body weight of mouse is reduced by more than 20% or the number of drug-related deaths exceeds 20%.
(§8) According to the description by Clarke R., Issues in experimental design and endpoint analysis in the study of experimental cytotoxic agents in vivo in breast cancer and other models [J]. Breast Cancer Research & Treatment, 1997, 46(2-3): 255-278, synergy analysis was evaluated using the following formula: synergy factor=((A/C)×(B/C))/(AB/C); A=RTV value of drug A alone group; B=RTV value of drug B alone group; C=RTV value of the solvent control group, and AB=RTV value of the A and B combination group.
(§9) Use of mRECIST (Gao et al., 2015) measured tumor responses included stable disease (SD), partial tumor regression (PR), and complete regression (CR), determined by comparing tumor volume change at day t to its baseline: tumor volume change (%)=(Vt−V1)/V1. The BestResponse was the minimum value of tumor volume change (%) for t≥10. For each time t, the average of tumor volume changes from t=1 to t was also calculated. BestAvgResponse was defined as the minimum value of this average for t≥10. The criteria for response (mRECIST) were adapted from RECIST criteria (Gao et al., 2015; Therasse et al., 2000) and defined as follows: mCR, BestResponse<−95% and BestAvg Response<−40%; mPR, BestResponse<−50% and BestAvgResponse<−20%; mSD, BestResponse<35% and BestAvgResponse<30%; mPD, not otherwise categorized. SD, PR, and CR were considered responders and used to calculate response rate (%). […] Body weight of animals were monitored simultaneously. […]

[1] = test system: PTK2-high liver PDX LI-03-1140; experiment: PTK2-high liver PDX model LI-03-1140, Compound 5 and Lenvatinib; format: in vivo, mouse
Experimental: as §1, §2, §3, §4, §5, §6, §7, §8, §9

[2] = Compound 5 100 mg/kg, trametinib 0.5 mg/kg, selumetinib 50 mg/kg, orally once per day
[3] = best response, animals per class
[4] = Compound 5 50 mg/kg, Lenvatinib 20 mg/kg, orally once per day, 28 days

SMILES: Cc1cc(Nc2ncc(Cl)c(Nc3ccccc3S(=O)(=O)C(C)C)n2)c(OC(C)C)cc1C1=CCN(C2CCOCC2)CC1 [Compound 5, 5-chloro-N^2-(2-isopropoxy-5-methyl-4-(1-(tetrahydro-2H-pyran-4-yl)-1,2,3,6-tetrahydropyridin-4-yl)phenyl)-N^4-(2-(isopropylsulfonyl)phenyl)pyrimidine-2,4-diamine]
- RTV on Day 19 after administration (mean ± standard error) (A549 NSCLC xenograft; [2]): 2.7 ± 0.2
- T/C on Day 19 after administration (%) (A549 NSCLC xenograft; [2]): 72.2%
- mRECIST on Day 19 after administration (A549 NSCLC xenograft; Day 19, animals per class): 5/5 PD
- mRECIST (A549 NSCLC xenograft; [3]): 1/5 SD, 4/5 PD
- antitumor activity (conclusion in words) (A549 NSCLC xenograft; mouse, in vivo): minor antitumor activity
- RTV on Day 28 after administration (mean ± standard error) [1, 4]: 5.00 ± 0.17
- T/C on Day 28 after administration (%) [1, 4]: 92.08%
- mRECIST on Day 28 after administration ([1]; Day 28, animals per class): 2/2 PD
- mRECIST [1, 3]: 2/2 PD
- antitumor activity (conclusion in words) ([1]; mouse, in vivo): no antitumor activity
